Results published in patent US12201622B2, “Continuous delivery of lenalidomide and other immunomodulatory agents” (Starton Therapeutics, Inc., priority 2019, dated 2025).
Entries after “also recorded” stand apart in the source; their conditions may differ.

How the values were obtained:
[1] = test system: H929 multiple myeloma tumor cells; experiment: Efficacy of lenalidomide continuous infusion in H929 myeloma xenograft model; assay type: in vivo, CB.17 SCID mouse
Source text: In this study, a composition comprising lenalidomide was continuously delivered via subcutaneous infusion or was delivered once a day via intraperitoneal injection to SCID mice wherein the mice were implanted with a H929 multiple myeloma xenograft.
(§1) Six groups of female CB.17 SCID mouse, each containing ten mice, were subcutaneously injected with 1×10^7 H929 multiple myeloma tumor cells in 50% Matrigel. After the tumor reached an average size of 100-150 mm^3, an iPrecio pump was surgically implanted into each of the mice. Dosing began twenty-four hours post pump implantation. Group 1, the control group, was treated with vehicle via intraperitoneal injection once a day. Group 2 was treated with lenalidomide via intraperitoneal injection once a day. Each of Groups 3-6 was treated lenalidomide via continuous subcutaneous infusion at different hourly rate. The dosing lasted 14 days followed by one day off the treatment and lasted for another 14 days. The iPrecio pump was replaced after 14 days. The formulation used in Groups 2-6 contains 20% PEG400 in water as the carrier. Blood was drawn at predetermined time points and analyzed
The table below lists the daily dose and schedule for each of the six groups.

[2] = Body weight and hematologic toxicity (WBC, PLT, ANC) in xenografted SCID mice; assay type: in vivo, CB.17 SCID mouse; settings: for ANC: normal range 0.77-2.5; for WBC: normal range 1.4-5.4; for PLT: normal range 733-1441
Procedure: as §1

[3] = Blood levels of lenalidomide in SCID mice after daily intraperitoneal dose; assay type: in vivo, SCID mouse; settings: Group 2: 500 mcg ip once a day
Procedure: In the study described in Example 1, the SCID mice in Group 2 were given the standard of care treatment which is a daily intraperitoneal dose of 25 mg/kg (500 mcg for 20 gm mouse) administered once a day. […] For example, if the continuous blood level is greater than that observed at 16 hours but less than that observed at 10 hours in daily intraperitoneal dose of 500 mcg administered once a day, it is effective and non-toxic. The maintenance of continuous dose specific blood levels in terms of their time range are predicted to be safe and effective and result in activity in humans.
as §1
The multiple myeloma study in SCID mice provides pharmacokinetically modeled data to support three treatment paradigms. The standard of care treatment in the mouse model study is a daily intraperitoneal dose of 500 mcg administered once a day (see Group 2). […] The range of tolerable and effective blood levels ranged from the blood level at 10 hours to the blood level at 16 hours. Continuous blood levels of greater than those observed at 8 hours or 0.29 mcg/mL and lower than those observed at 18 hours or 0.013 mcg/mL were either toxic or ineffective, respectfully. The maintenance of continuous dose specific blood levels in terms of their time range are predicted to be safe and effective and result in activity in humans.

[4] = Group 3: 144 μg/day (6 μg/hr) sc continuous, day 8
[5] = Group 4: 48 μg/day (2 μg/hr) sc continuous, day 8
[6] = Group 5: 24 μg/day (1 μg/hr) sc continuous, day 8
[7] = Group 6: 12 μg/day (.5 μg/hr) sc continuous, day 8

## Nc1cccc2c1CN(C1CCC(=O)NC1=O)C2=O (stereo not shown) [lenalidomide, 3-(4-amino-1-3-dihydro-1-oxo-2H-isoindol-2yl)-2,6-piperidinedione]
[1]; Group 2: 500 μg/day ip qd
  survival (Kaplan-Meier): no mouse survived at day 52
[1]; Group 2: 25 mg/kg (500 μg/day) ip qd x 14/1 day off/qd x 14, 25 mg/kg
  tumor volume: failed to inhibit the growth of the tumor volume; also recorded: slowed progression but did not inhibit the growth of the tumor size
[1]; Group 3: 144 μg/day (6 μg/hr) continuous sc infusion, 14 days/1 day off/14 days
  tumor volume: the only group having tumor volume reduced during the treatment schedule; also recorded: effectively reduced the tumor size in all animals treated at 6 mcg/hr
[1]; Group 3: 144 μg/day continuous sc infusion, day 1 to day 95
  survival (Kaplan-Meier): the only group having mice survived for 95 days
[2]; Group 2: 25 mg/kg ip qd, day 8
  ANC: 1.2 10^3 cells/μL
  WBC: 1.8 10^3 cells/μL
  PLT: 850 10^3 cells/μL
[2]; [4]
  ANC: 2.4 10^3 cells/μL
  WBC: 2.8 10^3 cells/μL
  PLT: 1360 10^3 cells/μL
[2]; [5]
  ANC: 1.9 10^3 cells/μL
  WBC: 2.4 10^3 cells/μL
  PLT: 1345 10^3 cells/μL
[2]; [6]
  ANC: 2.8 10^3 cells/μL
  WBC: 3.3 10^3 cells/μL
  PLT: 1410 10^3 cells/μL
[2]; [7]
  ANC: 2.5 10^3 cells/μL
  WBC: 3.2 10^3 cells/μL
  PLT: 1535 10^3 cells/μL
[2]; continuous sc infusion (Group 3, 144 μg/day)
  body weight: insignificant weight loss; also recorded: did not result in substantial loss of body weight
[2]; continuous sc infusion, Groups 3-6 (12-144 μg/day), day 8
  hematologic toxicity: no substantial hematologic toxicity; also recorded: did not result in substantial loss of body weight or hematologic toxicity
[3]
  blood level trough: 2 ng/mL
[3]; female, CB.17 SCID, mouse, blood, 500 ug, at 0.08 hours, read-out: blood level Cmax
  Cmax: 2900 ng/mL
[3]; female, CB.17 SCID, mouse, blood, 25 mg/kg, read-out: blood level at 8 hours
  concentration at 8 h: 290 ng/mL
[3]; female, CB.17 SCID, mouse, blood, 25 mg/kg, read-out: blood level at 18 hours
  concentration at 18 h: 13 ng/mL
